Measurements published in the supplement of paper PMC10307832.

Assays:
Assay in all cases: relative viability (nuclei count vs DMSO), 5 days (fraction); higher = more cells survive
AZD1208 + Phenformin = compound: N[C@@H]1CCCN(c2c(/C=C3\SC(=O)NC3=O)cccc2-c2ccccc2)C1 [AZD1208] + N=C(N)NC(=N)NCCc1ccccc1 [Phenformin] (partner 250 µM)
Method in brief: (§1)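 Cells from lung cancer lines were seeded into 1536-well plates and, one day later, dosed by pin tool. Treatments were either a single drug or a fixed dose of an anchor drug with five library-drug doses (not always all listed) in √10 steps. After 5 days, nuclei were stained in a one-step fixation (final 0.05% Triton X-100, 1% formaldehyde, 1 ug/ml Hoechst) and counted on 4× images, and relative viability is the treated-to-vehicle nuclei ratio, as the median of duplicate plates.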

XMD14-99 + Dasatinib = compound: CN1CCN(CC1)C2=CC(=C(C=C2)NC3=NC(=C(S3)C(=O)C4=C(C=CC=C4Cl)Cl)N)OC [XMD14-99] + Cc1nc(Nc2ncc(C(=O)Nc3c(C)cccc3Cl)s2)cc(N2CCN(CCO)CC2)n1 [Dasatinib] (partner 0.075 µM)
Method in brief: as §1

AZD1208 + Foretinib = compound: N[C@@H]1CCCN(c2c(/C=C3\SC(=O)NC3=O)cccc2-c2ccccc2)C1 [AZD1208] + COc1cc2c(Oc3ccc(NC(=O)C4(C(=O)Nc5ccc(F)cc5)CC4)cc3F)ccnc2cc1OCCCN1CCOCC1 [Foretinib] (partner 0.25 µM)
Method in brief: as §1

XMD14-99 + Alpelisib = compound: CN1CCN(CC1)C2=CC(=C(C=C2)NC3=NC(=C(S3)C(=O)C4=C(C=CC=C4Cl)Cl)N)OC [XMD14-99] + Cc1nc(NC(=O)N2CCC[C@H]2C(N)=O)sc1-c1ccnc(C(C)(C)C(F)(F)F)c1 [Alpelisib] (partner 2 µM)
Method in brief: as §1

| Cell Line | relative viability (AZD1208 + Phenformin; first compound 0.08 µM) | relative viability (AZD1208 + Phenformin; first compound 0.253 µM) | relative viability (AZD1208 + Phenformin; first compound 0.8 µM) | relative viability (AZD1208 + Phenformin; first compound 2.53 µM) | relative viability (AZD1208 + Phenformin; first compound 8 µM) | relative viability (XMD14-99 + Dasatinib; first compound 0.08 µM) | relative viability (XMD14-99 + Dasatinib; first compound 0.8 µM) | relative viability (XMD14-99 + Dasatinib; first compound 2.53 µM) | relative viability (XMD14-99 + Dasatinib; first compound 8 µM) | relative viability (AZD1208 + Foretinib; first compound 0.08 µM) | relative viability (AZD1208 + Foretinib; first compound 0.253 µM) | relative viability (AZD1208 + Foretinib; first compound 0.8 µM) | relative viability (AZD1208 + Foretinib; first compound 2.53 µM) | relative viability (AZD1208 + Foretinib; first compound 8 µM) | relative viability (XMD14-99 + Alpelisib; first compound 0.08 µM) | relative viability (XMD14-99 + Alpelisib; first compound 0.8 µM) | relative viability (XMD14-99 + Alpelisib; first compound 2.53 µM) | relative viability (XMD14-99 + Alpelisib; first compound 8 µM) |
| --- | --- | --- | --- | --- | --- | --- | --- | --- | --- | --- | --- | --- | --- | --- | --- | --- | --- | --- |
| HCC-827 | 0.423 | 0.436 | 0.425 | 0.418 | 0.378 | 0.322 | 0.281 | 0.309 | 0.256 | 1.14 | 1.1 | 1.05 | 1 | 1.03 | 1.05 | 0.902 | 0.948 | 0.741 |
| HOP-62 | 0.689 | 0.745 | 0.664 | 0.628 | 0.613 | 0.635 | 0.658 | 0.656 | 0.496 | 1.03 | 1.16 | 1.02 | 1.03 | 1.06 | 0.883 | 1 | 1.04 | 0.818 |
| IA-LM |  |  |  |  |  |  |  |  |  | 1.07 | 1.09 | 0.924 | 1.14 | 1.05 | 0.72 | 0.638 | 0.515 | 0.456 |
| LC-2-ad | 0.585 | 0.604 | 0.52 | 0.534 | 0.519 | 0.541 | 0.643 | 0.535 | 0.476 | 0.903 | 0.924 | 0.871 | 0.85 | 0.912 | 0.855 | 0.863 | 0.839 | 0.633 |
| LCLC-97TM1 | 0.358 | 0.498 | 0.429 | 0.447 | 0.335 | 0.837 | 0.766 | 0.73 | 0.559 | 0.914 | 0.945 | 1.03 | 0.891 | 0.8 | 0.263 | 0.201 | 0.202 | 0.202 |
| LCLC-103H | 0.317 | 0.246 | 0.323 | 0.315 | 0.28 | 0.383 | 0.582 | 0.472 | 0.442 | 0.771 | 0.665 | 0.56 | 0.558 | 0.485 | 0.867 | 1.04 | 0.959 | 0.863 |
| LK-2 | 0.402 | 0.218 | 0.179 | 0.188 | 0.135 | 0.279 | 0.214 | 0.281 | 0.204 | 0.935 | 0.707 | 0.821 | 0.574 | 0.421 | 1.01 | 1.11 | 0.855 | 1.05 |
| LOU-NH91 | 0.715 | 0.691 | 0.659 | 0.684 | 0.574 | 0.591 | 0.584 | 0.541 | 0.472 | 0.943 | 0.876 | 0.874 | 0.93 | 0.909 | 0.72 | 0.804 | 0.735 | 0.622 |
| LU99A | 0.871 | 0.921 | 0.965 | 0.764 | 0.638 | 0.655 | 0.526 | 0.464 | 0.305 | 0.707 | 0.882 | 0.782 | 0.82 | 0.611 | 0.511 | 0.547 | 0.46 | 0.415 |
| LXF-289 | 0.507 | 0.55 | 0.472 | 0.528 | 0.518 | 0.238 | 0.173 | 0.208 | 0.204 | 0.978 | 1.03 | 0.996 | 0.962 | 1.03 | 1 | 0.971 | 1.02 | 0.835 |
| NCI-H23 | 0.793 | 0.828 | 0.627 | 0.798 | 0.609 | 0.787 | 0.777 | 0.724 | 0.636 | 0.914 | 0.648 | 0.9 | 0.967 | 0.748 | 0.608 | 0.657 | 0.69 | 0.491 |
| NCI-H322M | 0.761 | 0.75 | 0.731 | 0.741 | 0.782 | 0.275 | 0.252 | 0.257 | 0.248 | 0.925 | 0.873 | 0.869 | 0.966 | 0.996 | 0.889 | 0.709 | 0.64 | 0.767 |
| NCI-H358 | 0.325 | 0.353 | 0.309 | 0.305 | 0.259 | 0.157 | 0.175 | 0.151 | 0.141 | 0.594 | 0.692 | 0.573 | 0.698 | 0.522 | 0.751 | 0.841 | 0.715 | 0.304 |
| NCI-H522 | 0.614 | 0.678 | 0.569 | 0.618 | 0.479 | 0.821 | 0.93 | 0.83 | 0.805 |  |  |  |  |  |  |  |  |  |
| NCI-H1299 |  |  |  |  |  |  |  |  |  | 1.11 | 1.08 | 1.08 | 1.14 | 1.07 | 1.05 | 1.04 | 1.05 | 0.884 |
| NCI-H1623 | 0.573 | 0.642 | 0.593 | 0.548 | 0.611 | 0.542 | 0.515 | 0.516 | 0.504 | 0.838 | 0.763 | 0.801 | 0.837 | 0.771 |  |  |  |  |
| NCI-H1650 | 0.416 | 0.424 | 0.414 | 0.337 | 0.289 | 0.335 | 0.289 | 0.316 | 0.2 | 1.08 | 0.993 | 1.17 | 1.05 | 1.1 |  |  |  |  |
| NCI-H1703 |  |  |  |  |  |  |  |  |  | 0.268 | 0.333 | 0.275 | 0.301 | 0.335 | 0.338 | 0.36 | 0.487 | 0.334 |
| NCI-H1792 | 0.371 | 0.233 | 0.179 | 0.258 | 0.138 | 0.73 | 0.71 | 0.631 | 0.503 |  |  |  |  |  | 0.688 | 0.734 | 0.627 | 0.474 |
| NCI-H2342 | 0.563 | 0.585 | 0.52 | 0.569 | 0.462 | 0.29 | 0.292 | 0.354 | 0.285 | 0.922 | 0.946 | 0.934 | 1.02 | 0.801 |  |  |  |  |
| SW 900 | 0.624 | 0.852 | 0.397 | 0.503 | 0.384 | 0.662 | 0.784 | 0.702 | 0.426 | 0.817 | 0.807 | 0.691 | 0.947 | 0.923 |  |  |  |  |
